Earlier results in patent US20240050950A1, “GRADIENT-BASED MICROFLUIDIC CIRCUIT, DEVICE, AND METHOD FOR PERFORMING AN ASSAY” (priority 2020, published 2024).
Where a name gives a salt, the structure may show the parent alone. Read-outs that look alike come from different tables or passages of the source.

Conditions: cited from earlier work
[1] = Table 1, antimicrobial agents/drugs
[2] = Table 3, antifungal drugs and other molecules

Row | SMILES | Molar volume [1] | Molar volume (Table 2, anticancer drugs) | further results
1 | CN[C@H]1C[C@@H](N)[C@H](O)[C@@H](O[C@@H]2O[C@H](CO)[C@H](O)[C@@H]3OC4(O[C@H]23)O[C@H]([C@@H](N)CO)[C@H](O)[C@H](O)[C@H]4O)[C@@H]1O (some centres unmarked) [Hygromycin B (WK2130000), Hygromycin B] | 315.1 ± 5.0 cm^3 |  | 
2 | CC(=O)[C@]1(O)Cc2c(O)c3c(c(O)c2[C@@H](O[C@H]2C[C@H](N)[C@H](O)[C@H](C)O2)C1)C(=O)c1ccccc1C3=O [Idarubicin Hydrochloride] |  | 317.8 ± 5.0 cm^3 | 
3 | CC[C@H](Nc1ncnc2[nH]cnc12)c1nc2cccc(F)c2c(=O)n1-c1ccccc1 [Idelalisib (Zydelig), Idelalisib] |  | 282.2 ± 7.0 cm^3 | 
4 | O=P1(NCCCl)OCCCN1CCCl (centres unmarked) [Ifex (Ifosfamide), Ifosfamide] |  | 195.6 ± 5.0 cm^3 | 
5 | C[C@H](CCC(=O)O)C[C@H](C)C[C@H](C)C(=O)/C=C(\O)[C@H](C)C[C@H](C)C/C=C/[C@@H](C)[C@@H](O)[C@@H](C)[C@@H](O)C[C@@H]1CC[C@@](C)([C@H]2CC[C@@](C)([C@@H](C)O)O2)O1 [Ionomycin] | 661.0 ± 3.0 cm^3 |  | 
6 | Oc1cc(Cl)ccc1Oc1ccc(Cl)cc1Cl [Irgasan] | 194.3 ± 3.0 cm^3 |  | 
7 | N#Cc1ccnc(N2C(=O)CC[C@H]2C(=O)N(c2cncc(F)c2)[C@H](C(=O)NC2CC(F)(F)C2)c2ccccc2Cl)c1 [Ivosidenib (Tibsovo), Ivosidenib] |  | 383.5 ± 5.0 cm^3 | 
8 | C/C(=C\c1csc(C)n1)[C@@H]1C[C@@H]2O[C@]2(C)CCC[C@H](C)[C@H](O)[C@@H](C)C(=O)C(C)(C)[C@@H](O)CC(=O)N1 [Ixabepilone] |  | 451.5 ± 3.0 cm^3 | 
9 | CO[C@@H]1[C@@H](O[C@@H]2O[C@H](C)[C@@H](O[C@H]3C[C@@](C)(O)[C@@H](OC(=O)CC(C)C)[C@H](C)O3)[C@H](N(C)C)[C@H]2O)[C@@H](CC=O)C[C@@H](C)[C@@H](O)/C=C/C=C/C[C@@H](C)OC(=O)C[C@H]1OC(C)=O [Josamycin] | 684.5 ± 5.0 cm^3 |  | 
10 | COC(=O)[C@@]1(O)C[C@H]2O[C@]1(C)n1c3ccccc3c3c4c(c5c6ccccc6n2c5c31)C(=O)NC4 [K-252a] | 278.7 ± 7.0 cm^3 |  | 
11 | C[C@H]1O[C@H](O[C@H]2[C@H](O)[C@@H](O)[C@@H](O)[C@H](O)[C@@H]2O)[C@@H](N)C[C@@H]1NC(=N)C(=O)O [Kasugamycin] |  |  | Molar volume [2]: 192.2 ± 7.0 cm^3
12 | CC(=O)N1CCN(c2ccc(OCC3COC(Cn4ccnc4)(c4ccc(Cl)cc4Cl)O3)cc2)CC1 (centres unmarked) [Ketoconazole] | 384.9 ± 7.0 cm^3 |  | Molar volume [2]: 389.4 cm^3
13 | CN(C)C(=O)c1cc2cnc(Nc3ccc(N4CCNCC4)cn3)nc2n1C1CCCC1 [Kisqali (Ribociclib), Ribociclib] |  | 635.1 ± 5.0 cm^3 | Molar volume (Table 2, anticancer drugs, listed as Ribociclib): 311.4 ± 7.0 cm^3
14 | C[C@H](N)C(=O)N[C@@H](C)P(=O)(O)O [L-Alanyl-L-1-aminoethylphosphonic acid] | 140.5 ± 3.0 cm^3 |  | 
15 | CC(C)[C@@H]1NC(=O)[C@H](CCCCN)NC(=O)[C@@H](Cc2c[nH]c3ccccc23)NC(=O)[C@H](Cc2ccc(O)cc2)NC(=O)[C@@H](NC(=O)[C@H](N)Cc2ccc3ccccc3c2)CSSC[C@@H](C(=O)N[C@H](C(N)=O)[C@@H](C)O)NC1=O [Lanreotide Acetate] |  | 781.0 ± 5.0 cm^3 | 
16 | O=C(Nc1cnn2ccc(N3CCC[C@@H]3c3cc(F)ccc3F)nc12)N1CC[C@H](O)C1 [Larotrectinib Sulfate (Vitrakvi), Larotrectinib Sulfate] |  | 274.6 ± 7.0 cm^3 | 
17 | Nc1cccc2c1CN(C1CCC(=O)NC1=O)C2=O (centres unmarked) [Lenalidomide] |  | 177.4 ± 3.0 cm^3 | 
18 | CC(/C=C/C[C@@H](C)/C=C(C)/C=C/[C@@H]1OC(=O)C=C[C@@H]1C)=C\[C@@H](C)C(=O)[C@@H](C)[C@H](O)[C@@H](C)C/C(C)=C/C(=O)O [Leptomycin A] | 487.8 ± 3.0 cm^3 |  | 
19 | CCC(=C/[C@H](C)C/C=C/C(C)=C/[C@@H](C)C(=O)[C@@H](C)[C@H](O)[C@@H](C)C/C(C)=C/C(=O)O)/C=C/[C@@H]1OC(=O)C=C[C@@H]1C [Leptomycin B] | 504.3 ± 3.0 cm^3 |  | 
20 | CCNC(=O)[C@@H]1CCCN1C(=O)[C@H](CCCNC(=N)N)NC(=O)[C@H](CC(C)C)NC(=O)[C@@H](CC(C)C)NC(=O)[C@H](Cc1ccc(O)cc1)NC(=O)[C@H](CO)NC(=O)[C@H](Cc1c[nH]c2ccccc12)NC(=O)[C@H](Cc1c[nH]cn1)NC(=O)[C@@H]1CCC(=O)N1 [Leuprolide Acetate), Leuprolide Acetate] |  | 834.5 ± 7.0 cm^3 | 
21 | c1ccc([C@H]2CN3CCSC3=N2)cc1 [Levamisol (Levamisole), Levamisole] | 154.1 ± 7.0 cm^3 |  | 
22 | O=NN(CCCl)C(=O)NC1CCCCC1 [Lomustine] |  | 173.0 ± 7.0 cm^3 | 
23 | O=C(c1cc(Cc2n[nH]c(=O)c3ccccc23)ccc1F)N1CCN(C(=O)C2CC2)CC1 [Lynparza (Olaparib), Olaparib] |  | 301.7 ± 7.0 cm^3 | 
24 | CNNCc1ccc(C(=O)NC(C)C)cc1 [Matulane (Procarbazine Hydrochloride), Procarbazine Hydrochloride] |  | 213.6 ± 3.0 cm^3 | 
25 | COC(=O)Nc1nc2ccc(C(=O)c3ccccc3)cc2[nH]1 [Mebendazole] | 212.6 ± 3.0 cm^3 |  | 

Row | SMILES | Molar volume [1] | Molar volume (Table 2, anticancer drugs) | further results
26 | CC(=O)O[C@]1(C(C)=O)CC[C@H]2[C@@H]3C=C(C)C4=CC(=O)CC[C@]4(C)[C@H]3CC[C@@]21C [Megestrol Acetate] |  | 333.3 ± 5.0 cm^3 | 
27 | N[C@@H](Cc1ccc(N(CCCl)CCCl)cc1)C(=O)O [Melphalan] |  | 231.2 ± 3.0 cm^3 | 
28 | S=c1nc[nH]c2nc[nH]c12 [Mercaptopurine] |  | 94.1 ± 3.0 cm^3 | 
29 | CN(Cc1cnc2nc(N)nc(N)c2n1)c1ccc(C(=O)N[C@@H](CCC(=O)O)C(=O)O)cc1 [Methotrexate] |  | 295.6 ± 3.0 cm^3 | 
30 | Cc1ncc([N+](=O)[O-])n1CCO [Metronidazole] | 117.8 ± 7.0 cm^3 |  | 
31 | CC[C@H](C)C(=O)O[C@H]1CCC=C2C=C[C@H](C)[C@H](CC[C@@H]3C[C@@H](O)CC(=O)O3)[C@H]21 [Mevastatin] | 343.8 ± 5.0 cm^3 |  | 
32 | CO[C@@]12[C@H](COC(N)=O)C3=C(C(=O)C(C)=C(N)C3=O)N1C[C@@H]1N[C@@H]12 [Mitomycin C (Mitomycin), Mitomycin C] | 213.6 ± 5.0 cm^3 | 213.6 ± 5.0 cm^3 | 
33 | CC[C@@]1([C@@H]2O[C@@H]([C@H]3O[C@@](O)(CO)[C@H](C)C[C@@H]3C)C[C@@H]2C)CC[C@H]([C@]2(C)CC[C@]3(C[C@H](O)[C@@H](C)[C@@H]([C@@H](C)[C@@H](OC)[C@H](C)C(=O)O)O3)O2)O1 [Monensin] | 552.7 ± 5.0 cm^3 |  | 
34 | CO[C@@]1(NC(=O)C(C(=O)O)c2ccc(O)cc2)C(=O)N2C(C(=O)O)=C(CSc3nnnn3C)CO[C@@H]21 (some centres unmarked) [Moxalactam (Latamoxef), Moxalactam] | 292.5 ± 7.0 cm^3 |  | 
35 | c1cc(CN2CCCNCCNCCCNCC2)ccc1CN1CCCNCCNCCCNCC1 [Mozobil (Plerixafor), Plerixafor] |  | 522.2 ± 3.0 cm^3 | 
36 | C/C(=C\C(=O)OCCCCCCCCC(=O)O)C[C@@H]1OC[C@H](C[C@@H]2O[C@H]2[C@@H](C)[C@H](C)O)[C@@H](O)[C@H]1O [Mupirocin] | 423.0 ± 3.0 cm^3 |  | 
37 | CO/C(=C/C(N)=O)[C@H](C)[C@H](/C=C/c1csc(-c2csc([C@@H](C)/C=C/C=C/C(C)C)n2)n1)OC [Myxothiazol] | 421.0 ± 3.0 cm^3 |  | 
38 | CN1C[C@H](O)[C@@H](O)[C@H](O)[C@H]1CO [N-Methyl-1-deoxynojirimycin (1524564), N-Methyl-1-deoxynojirimycin] | 127.0 ± 3.0 cm^3 |  | 
39 | CCOc1ccc2ccccc2c1C(=O)N[C@@H]1C(=O)N2[C@@H]1SC(C)(C)[C@@H]2C(=O)O [Nafcillin] | 289.8 ± 5.0 cm^3 |  | 
40 | CN(C/C=C/c1ccccc1)Cc1cccc2ccccc12 [Naftifine] | 265.4 ± 3.0 cm^3 |  | 
41 | CC[C@@H](C(=O)O)[C@@H]1O[C@@H]([C@@H](C)[C@H](O)[C@H](C)C(=O)[C@H](CC)[C@H]2O[C@]3(C=C[C@@H](O)[C@]4(CC[C@@](C)([C@H]5CC[C@](O)(CC)[C@H](C)O5)O4)O3)[C@H](C)C[C@@H]2C)[C@@H](C)C[C@@H]1C [Narasin] | 650.1 ± 5.0 cm^3 |  | 
42 | CCC1=C[C@@H]2CN(C1)Cc1c([nH]c3ccccc13)[C@@](C(=O)OC)(c1cc3c(cc1OC)N(C)[C@H]1[C@@](O)(C(=O)OC)[C@H](OC(C)=O)[C@]4(CC)C=CCN5CC[C@]31[C@@H]54)C2 [Navelbine (Vinorelbine Tartrate), Vinorelbine Tartrate] |  | 569.7 ± 5.0 cm^3 | 
43 | Cn1cc(NC(=O)c2cc(NC(=O)CN=C(N)N)cn2C)cc1C(=O)NCCC(=N)N [Netropsin (Congocidin, Sinanomycin), Netropsin] | 282.7 ± 7.0 cm^3 |  | 
44 | CNC(=O)c1cc(Oc2ccc(NC(=O)Nc3ccc(Cl)c(C(F)(F)F)c3)cc2)ccn1 [Nexavar (Sorafenib Tosylate), Sorafenib Tosylate] |  | 319.4 ± 3.0 cm^3 | 
45 | O=C(Nc1ccc([N+](=O)[O-])cc1Cl)c1cc(Cl)ccc1O [Niclosamide] | 202.4 ± 3.0 cm^3 |  | 
46 | CO[C@@H]1C[C@@H](C[C@H]2CC[C@H](C)[C@H]([C@@H](C)C(=O)O)O2)O[C@]2(O[C@](C)([C@H]3CC[C@@](C)([C@@H]4O[C@@H]([C@H]5O[C@@](O)(CO)[C@H](C)C[C@@H]5C)C[C@@H]4C)O3)C[C@H]2C)[C@@H]1C [Nigericin] | 607.9 ± 5.0 cm^3 |  | 
47 | C[C@@H]([C@H](N)C(=O)N[C@H](C(=O)O)[C@H]1O[C@@H](n2ccc(=O)[nH]c2=O)[C@H](O)[C@@H]1O)[C@H](O)c1ccc(O)cn1 [Nikkomycin] | 300.9 ± 3.0 cm^3 |  | 
48 | CC1(C)NC(=O)N(c2ccc([N+](=O)[O-])c(C(F)(F)F)c2)C1=O [Nilandron (Nilutamide), Nilutamide] |  | 216.7 ± 3.0 cm^3 | 
49 | Cc1cn(-c2cc(NC(=O)c3ccc(C)c(Nc4nccc(-c5cccnc5)n4)c3)cc(C(F)(F)F)c2)cn1 [Nilotinib (Tasigna), Nilotinib] |  | 388.6 ± 7.0 cm^3 | 
50 | C[C@@H]1C[C@H]2CC[C@H](O2)[C@H](C)C(=O)O[C@@H](C)C[C@@H]2CC[C@@H](O2)[C@@H](C)C(=O)O[C@H](C)C[C@H]2CC[C@H](O2)[C@H](C)C(=O)O[C@@H](C)C[C@@H]2CC[C@@H](O2)[C@@H](C)C(=O)O1 [Nonactin (Ammonium ionophore), Nonactin] | 707.9 ± 3.0 cm^3 |  | 
